# Measured values published in patent US10028508B2, “Use of active compound compositions” (BAYER CROPSCIENCE AKTIENGESELLSCHAFT, priority 2014, dated 2018).
# Like-named read-outs stand apart in the source and are kept apart here.
# Tested on: Anopheles funestus metabolic-resistant strain FUMOZ-R
# Assay: Metabolic-Resistant Anopheles Test (mortality on treated tile, wood, concrete)
# Type: in vivo
# Conditions: for mortality at 12.5 mg/m2: Deltamethrin 12.5 mg/m2, read-out: Mortality Effect %; for mortality at 25 mg/m2: Deltamethrin 25 mg/m2, read-out: Mortality Effect %
# Method: To produce a suitable preparation of active compound combination the active compounds deltamethrin and clothanidin were dissolved in acetone (for the control group only one active compound was dissolved in acetone). The active compound combination preparation (and the active compound preparations) were pipetted onto a glazed tile, wood and concrete and, after drying, adult mosquitoes of the species Anopheles funestus metabolic-resistant strain FUMOZ-R (Hunt et al., Med Vet Entomol. 2005 September; 19(3):271-5) are placed onto the treated tile, wood and concrete. The exposition time is 30 minutes.
# 1 hour, 2 hour, 4 hour, 24 hours after contact to the treated surface, the mortality proportion of the test animals in % is determined. Here, 100% means that all mosquitoes have been killed; 0% means that none of the mosquitoes has been killed. The treated tile, wood and concrete was stored under stress conditions (30° C./80% rh). Measurement with the treated tile, wood and concrete was repeated 5 weeks (Table 1), 11 weeks (Table 2) and 60 weeks (Table 3) after the treatment with the active compound combination.
# [1] = 5 weeks after treatment, Concrete, 1 h after contact
# [2] = 5 weeks after treatment, Concrete, 2 h after contact
# [3] = 5 weeks after treatment, Concrete, 4 h after contact
# [4] = 5 weeks after treatment, Concrete, 24 h after contact
# [5] = 5 weeks after treatment, Tile, 1 h after contact
# [6] = 5 weeks after treatment, Tile, 2 h after contact
# [7] = 5 weeks after treatment, Tile, 4 h after contact
# [8] = 5 weeks after treatment, Tile, 24 h after contact
# [9] = 5 weeks after treatment, Wood, 1 h after contact
# [10] = 5 weeks after treatment, Wood, 2 h after contact
# [11] = 5 weeks after treatment, Wood, 4 h after contact
# [12] = 5 weeks after treatment, Wood, 24 h after contact
# [13] = 11 weeks after treatment, Concrete, 1 h after contact
# [14] = 11 weeks after treatment, Concrete, 2 h after contact
# [15] = 11 weeks after treatment, Concrete, 4 h after contact
# [16] = 11 weeks after treatment, Concrete, 24 h after contact
# [17] = 11 weeks after treatment, Tile, 1 h after contact
# [18] = 11 weeks after treatment, Tile, 2 h after contact
# [19] = 11 weeks after treatment, Tile, 4 h after contact
# [20] = 11 weeks after treatment, Tile, 24 h after contact
# [21] = 11 weeks after treatment, Wood, 1 h after contact
# [22] = 11 weeks after treatment, Wood, 2 h after contact
# [23] = 11 weeks after treatment, Wood, 4 h after contact
# [24] = 11 weeks after treatment, Wood, 24 h after contact
# [25] = 60 weeks after treatment, Concrete, 1 h after contact
# [26] = 60 weeks after treatment, Concrete, 2 h after contact
# [27] = 60 weeks after treatment, Concrete, 4 h after contact
# [28] = 60 weeks after treatment, Concrete, 24 h after contact
# [29] = 60 weeks after treatment, Tile, 1 h after contact
# [30] = 60 weeks after treatment, Tile, 2 h after contact
# [31] = 60 weeks after treatment, Tile, 4 h after contact
# [32] = 60 weeks after treatment, Tile, 24 h after contact
# [33] = 60 weeks after treatment, Wood, 1 h after contact
# [34] = 60 weeks after treatment, Wood, 2 h after contact
# [35] = 60 weeks after treatment, Wood, 4 h after contact
# [36] = 60 weeks after treatment, Wood, 24 h after contact
compound,measurement,setting,value
"CC1(C)[C@H](C(=O)O[C@H](C#N)c2cccc(Oc3ccccc3)c2)[C@@H]1C=C(Br)Br [Deltamethrin, deltamethrin]",mortality at 12.5 mg/m2,[1],70%
same,mortality at 25 mg/m2,[1],90%
same,mortality at 12.5 mg/m2,[2],87%
same,mortality at 25 mg/m2,[2],100%
same,mortality at 12.5 mg/m2,[3],100%
same,mortality at 25 mg/m2,[3],100%
same,mortality at 12.5 mg/m2,[4],30%
same,mortality at 25 mg/m2,[4],73%
same,mortality at 12.5 mg/m2,[5],17%
same,mortality at 25 mg/m2,[5],7%
same,mortality at 12.5 mg/m2,[6],77%
same,mortality at 25 mg/m2,[6],83%
same,mortality at 12.5 mg/m2,[7],97%
same,mortality at 25 mg/m2,[7],100%
same,mortality at 12.5 mg/m2,[8],100%
same,mortality at 25 mg/m2,[8],93%
same,mortality at 12.5 mg/m2,[9],10%
same,mortality at 25 mg/m2,[9],30%
same,mortality at 12.5 mg/m2,[10],77%
same,mortality at 25 mg/m2,[10],90%
same,mortality at 12.5 mg/m2,[11],80%
same,mortality at 25 mg/m2,[11],93%
same,mortality at 12.5 mg/m2,[12],77%
same,mortality at 25 mg/m2,[12],83%
same,mortality at 12.5 mg/m2,[13],3%
same,mortality at 25 mg/m2,[13],13%
same,mortality at 12.5 mg/m2,[14],0%
same,mortality at 25 mg/m2,[14],43%
same,mortality at 12.5 mg/m2,[15],17%
same,mortality at 25 mg/m2,[15],63%
same,mortality at 12.5 mg/m2,[16],30%
same,mortality at 25 mg/m2,[16],73%
same,mortality at 12.5 mg/m2,[17],0%
same,mortality at 25 mg/m2,[17],10%
same,mortality at 12.5 mg/m2,[18],0%
same,mortality at 25 mg/m2,[18],33%
same,mortality at 12.5 mg/m2,[19],0%
same,mortality at 25 mg/m2,[19],43%
same,mortality at 12.5 mg/m2,[20],3%
same,mortality at 25 mg/m2,[20],63%
same,mortality at 12.5 mg/m2,[21],0%
same,mortality at 25 mg/m2,[21],0%
same,mortality at 12.5 mg/m2,[22],0%
same,mortality at 25 mg/m2,[22],27%
same,mortality at 12.5 mg/m2,[23],20%
same,mortality at 25 mg/m2,[23],80%
same,mortality at 12.5 mg/m2,[24],13%
same,mortality at 25 mg/m2,[24],70%
same,mortality at 12.5 mg/m2,[25],0%
same,mortality at 25 mg/m2,[25],0%
same,mortality at 12.5 mg/m2,[26],0%
same,mortality at 25 mg/m2,[26],0%
same,mortality at 12.5 mg/m2,[27],0%
same,mortality at 25 mg/m2,[27],0%
same,mortality at 12.5 mg/m2,[28],13%
same,mortality at 25 mg/m2,[28],23%
same,mortality at 12.5 mg/m2,[29],0%
same,mortality at 25 mg/m2,[29],0%
same,mortality at 12.5 mg/m2,[30],0%
same,mortality at 25 mg/m2,[30],7%
same,mortality at 12.5 mg/m2,[31],17%
same,mortality at 25 mg/m2,[31],23%
same,mortality at 12.5 mg/m2,[32],30%
same,mortality at 25 mg/m2,[32],53%
same,mortality at 12.5 mg/m2,[33],0%
same,mortality at 25 mg/m2,[33],0%
same,mortality at 12.5 mg/m2,[34],0%
same,mortality at 25 mg/m2,[34],10%
same,mortality at 12.5 mg/m2,[35],17%
same,mortality at 25 mg/m2,[35],37%
same,mortality at 12.5 mg/m2,[36],43%
same,mortality at 25 mg/m2,[36],43%
